From patent publication US20260265703A1, “DEGRON FUSION PROTEINS AND METHODS OF PRODUCTION AND USE THEREOF” (BlueRock Therapeutics LP, priority 2023, published 2026)

Key:
[1] = tested on: iPSCs edited with a construct comprising a degron fused to GAPDH as well as GFP (GFP-positive); assay: Depletion of GFP-positive gene-edited iPSCs in a mixture with unedited cells after POM; format: cell-based; settings: 3 μM POM for 6d; heterogenous mixture; FIG. 7G construct
Protocol: (§1) Functionality of the kill switch was tested in iPSCs using the targeting construct depicted in FIG. 7G, which comprises a linker, a degron sequence, an IRES, and a GFP transgene sequence flanked by GAPDH homology arms. On the day of Nucleofection, iPSCs were harvested and resuspended in Lonza P3 primary cell nucleofection buffer. Ribonucleoproteins (RNPs) were complexed with sgRNAs using 1:2 ratio of protein:sgRNA (IDT). Nucleofection of complexed RNP together with a targeting construct into resuspended iPSCs was accomplished using LONZA 4D Nucleofector. The Nucleofected cells were then plated and assessed for targeting events.
(§2) A heterogenous mixture of unedited cells (GFP-negative) and cells edited with a construct depicted in FIG. 7G, comprising a degron fused to GAPDH as well as GFP (GFP-positive) were treated with 3 μM pomalidomide (POM) for 6d or fed with complete medium without POM (untreated).

[2] = tested on: unedited cells (GFP-negative) iPSCs; assay: Effect of POM on unedited cells in the mixture with gene-edited iPSCs; format: cell-based; settings: 3 μM POM for 6d; heterogenous mixture
Protocol: as §1, §2

[3] = tested on: iPSC clone bi-allelically modified with a degron fused to GAPDH and IRES-GFP; assay: Incucyte live cells/well of a bi-allelically modified iPSC clone under POM; format: cell-based; settings: 1 μM POM
Text: The percentage of live cells/well was quantified at several timepoints using the Incucyte software and normalized for the number of live cells/well at the first image timepoint.

[4] = tested on: pool of iPSCs transfected with degron or superdegron GAPDH IRES-GFP targeting constructs; assay: Linker length: flow cytometry of GFP signal depletion in transfected iPSC pools; format: cell-based; settings: 3 μM POM for 4 days
Text: (§3) Two sets of targeting constructs were generated as described in Section 8.1. The first set of targeting constructs were designed to comprise a linker, a degron or superdegron sequence, an IRES sequence, and a GFP transgene sequence flanked by GAPDH homology arms as depicted in FIGS. 7G-7J, wherein the linker lengths were 3 aa (linker 1, GGS), 15 aa (linker 2, SEQ ID NO:23), 27 aa (linker 3, SEQ ID NO:103) and 10 aa (linker 4, SEQ ID NO:15). The second set of targeting constructs were designed to comprise a linker and a degron or superdegron sequence flanked by GAPDH homology arms as depicted in FIGS. 7A-7D. For both sets, the homology arms were designed to enable integration of the construct in the endogenous GAPDH locus, immediately 5′ of the GAPDH endogenous STOP codon. iPSCs were transfected with each construct individually.
A pool of iPSCs transfected with the first set of targeting constructs, potentially comprising both mono-allelically and bi-allelically gene edited iPSCs, were evaluated using flow cytometry, wherein the depletion of GFP signal was assessed following treatment with 3 μM POM for 4 days. Among gene-edited iPSCs, those that were transfected with the superdegron-comprising targeting construct had the lowest percentage of GFP-positive cells, whereas approximately ⅓ to ½ of […] cells transfected with one of the degron-comprising targeting constructs were GFP-positive.

[5] = tested on: iPSCs transfected with degron or superdegron GAPDH targeting constructs; assay: Linker length: amplicon depletion after POM relative to untreated cells; format: cell-based; settings: 3 μM POM; construct with 3 aa linker and degron
Text: as §3
Next, the iPSCs transfected with the second set of targeting constructs were evaluated, wherein amplicon depletion was assessed following POM treatment relative to untreated cells. […] Taken together, targeting construct linker length and degron type might be key factors to trigger cell death in gene-edited cells.

GAPDH expression = assay: qPCR of GAPDH expression in gene-edited iPSC clones; format: cell-based; settings: 3 μM POM for up to 3 days; three degron clones and one superdegron clone
[6] = target: degron-fused GAPDH protein (Homo sapiens, UniProt P04406+Q96SW2); settings: one day treatment with 3 μM POM; degron and superdegron iPSC clones
Protocol: To determine whether gene-editing of iPSCs with a targeting construct, wherein the homology arms of which enable its integration in the endogenous GAPDH locus, affects the expression of GAPDH, three clones bi-allelically modified with a targeting construct comprising a 3 aa linker, GGS and a degron (as depicted in FIG. 7G) and one clone bi-allelically modified with superdegron-comprising targeting construct (as depicted in FIG. 7J) were treated with 3 μM POM for up to 3 days.

[7] = tested on: gene-edited iPSC clones (degron or superdegron linked to GAPDH); format: cell-based
[8] = tested on: unedited parental cells (iPSCs); assay: Growth of unedited parental iPSCs under POM; format: cell-based; settings: 0.5 μM POM for 5 days
Protocol: The same gene-edited iPSC clones in Example 4 were treated with 0.5 μM POM for 5 days to determine if there were any differences between the survival rates.

[9] = tested on: dopaminergic (DA) neurons differentiated from gene-edited iPSC clones (degron linked to GAPDH); assay: Annexin V Incucyte cell death of DA neurons differentiated from gene-edited iPSCs; format: cell-based
Protocol: (§4) In order to determine the applicability of the degron-comprising targeting constructs to differentiated cells, unedited parental iPSCs and gene-edited iPSC clones B and C were differentiated into dopaminergic (DA) neurons as depicted in FIG. 13. The differentiation protocol was adapted from Kriks et al., 2011, Nature 480 (7378): 547-551 and U.S. Pat. No. 10,711,243, which are hereby incorporated by reference in their entireties. Cell death was assessed post-thaw after cells were plated down in the presence and absence of various concentrations of POM. Annexin V dye was used to quantify cell death in an Incucyte imager over a period of 5 days.
(§5) Cells were differentiated from iPSCs into DA neurons using the same protocol as depicted in FIG. 13. DA neurons were plated and stained with Annexin V dye and cell death was measured using an Incucyte Imager over a period of 144 hours.

[10] = tested on: DA neurons derived from unedited parental iPSCs; assay: Annexin V Incucyte cell death of DA neurons derived from unedited parental iPSCs; format: cell-based
Protocol: as §4, §5

[11] = tested on: myeloid progenitor (MP) cells differentiated from biallelically gene-edited iPSC clones A, B, and C; assay: AO/PI Incucyte cell death of myeloid progenitor cells differentiated from gene-edited iPSCs; format: cell-based; settings: 1 μM POM, 108 hours
Text: (§6) To expand the applicability of the degron-comprising constructs to additional differentiated cell types, unedited parental iPSCs and biallelically gene-edited iPSC clones A, B, and C comprising targeting construct as depicted in FIG. 7G were differentiated into myeloid progenitor (MP) cells as depicted in FIG. 17. The differentiation protocol was adapted from Douvaras et al., 2017 Jun. 6; 8 (6): 1516-1524 and PCT publication nos. WO 2023/150089 A1 and WO 2017/152081 A1, which are hereby incorporated by reference in their entireties. Cell death was assessed post-thaw after MP cells were plated down in the presence and absence of POM. Acridine Orange/Propidium Iodine (AO/PI) dye was used to quantify cell death in an Incucyte Imager over a period of 108 hours.

[12] = tested on: myeloid progenitor (MP) cells differentiated from unedited parental iPSCs; assay: AO/PI Incucyte cell death of myeloid progenitor cells from unedited parental iPSCs; format: cell-based; settings: 1 μM POM; 108 hours
Text: as §6

degron-fused GAPDH protein, sequence (P04406 other isoform, or with tags, fused parts or gaps): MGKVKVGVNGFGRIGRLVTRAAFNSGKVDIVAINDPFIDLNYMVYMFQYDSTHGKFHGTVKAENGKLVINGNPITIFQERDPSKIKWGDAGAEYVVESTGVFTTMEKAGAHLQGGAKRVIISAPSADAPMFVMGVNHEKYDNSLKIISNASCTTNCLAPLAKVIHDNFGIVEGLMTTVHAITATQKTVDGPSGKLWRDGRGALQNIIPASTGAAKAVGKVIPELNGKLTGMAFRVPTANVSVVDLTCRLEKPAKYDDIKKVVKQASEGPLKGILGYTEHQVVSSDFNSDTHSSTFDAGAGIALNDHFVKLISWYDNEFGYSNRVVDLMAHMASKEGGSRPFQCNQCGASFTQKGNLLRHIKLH
degron-fused GAPDH protein, sequence (Q96SW2 whole entry, the tested form may be a part): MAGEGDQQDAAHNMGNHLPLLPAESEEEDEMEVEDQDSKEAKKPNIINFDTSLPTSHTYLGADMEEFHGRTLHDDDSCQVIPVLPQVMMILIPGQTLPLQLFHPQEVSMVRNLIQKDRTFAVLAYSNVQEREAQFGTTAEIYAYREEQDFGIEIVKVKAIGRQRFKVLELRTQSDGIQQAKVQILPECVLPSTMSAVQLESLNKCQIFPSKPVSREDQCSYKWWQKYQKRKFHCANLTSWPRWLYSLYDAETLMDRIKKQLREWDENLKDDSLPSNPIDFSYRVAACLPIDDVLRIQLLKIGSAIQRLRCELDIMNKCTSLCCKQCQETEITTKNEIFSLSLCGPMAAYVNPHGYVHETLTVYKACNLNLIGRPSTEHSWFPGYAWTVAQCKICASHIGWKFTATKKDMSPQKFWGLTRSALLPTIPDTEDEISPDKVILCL
degron-fused GAPDH protein, sequence (Q16531 whole entry, further chain, the tested form may be a part): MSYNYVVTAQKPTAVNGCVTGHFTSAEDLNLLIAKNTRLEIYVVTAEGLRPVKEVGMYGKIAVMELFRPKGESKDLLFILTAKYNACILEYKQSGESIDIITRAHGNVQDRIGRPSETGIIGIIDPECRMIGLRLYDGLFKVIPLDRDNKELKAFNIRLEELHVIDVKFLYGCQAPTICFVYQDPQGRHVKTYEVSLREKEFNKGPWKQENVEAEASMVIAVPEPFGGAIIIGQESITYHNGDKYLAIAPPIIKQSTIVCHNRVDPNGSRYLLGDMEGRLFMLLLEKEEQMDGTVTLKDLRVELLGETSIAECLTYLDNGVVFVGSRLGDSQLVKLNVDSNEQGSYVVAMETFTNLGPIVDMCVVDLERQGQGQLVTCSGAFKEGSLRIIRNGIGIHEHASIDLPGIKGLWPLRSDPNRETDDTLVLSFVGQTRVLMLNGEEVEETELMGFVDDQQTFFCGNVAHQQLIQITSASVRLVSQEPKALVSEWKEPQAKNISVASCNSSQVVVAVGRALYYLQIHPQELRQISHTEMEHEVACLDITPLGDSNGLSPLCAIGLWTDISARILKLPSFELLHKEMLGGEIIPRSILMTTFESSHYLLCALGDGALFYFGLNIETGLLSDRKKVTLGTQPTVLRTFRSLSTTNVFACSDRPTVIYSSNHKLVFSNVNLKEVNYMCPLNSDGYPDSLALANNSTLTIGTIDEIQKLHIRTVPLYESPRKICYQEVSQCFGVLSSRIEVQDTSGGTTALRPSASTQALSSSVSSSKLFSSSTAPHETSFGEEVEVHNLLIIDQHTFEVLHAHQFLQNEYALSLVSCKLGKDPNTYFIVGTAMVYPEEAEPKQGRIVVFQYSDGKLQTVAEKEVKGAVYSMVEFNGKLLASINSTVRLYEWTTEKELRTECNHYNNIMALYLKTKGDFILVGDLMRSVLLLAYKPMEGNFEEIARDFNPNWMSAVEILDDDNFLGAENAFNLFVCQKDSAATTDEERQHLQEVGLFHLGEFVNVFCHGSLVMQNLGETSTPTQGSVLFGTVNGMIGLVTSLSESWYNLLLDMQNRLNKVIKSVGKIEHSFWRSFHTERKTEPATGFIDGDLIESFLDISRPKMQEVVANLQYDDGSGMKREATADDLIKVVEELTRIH

## Nc1cccc2c1C(=O)N(C1CCC(=O)NC1=O)C2=O (stereo not shown) [POM, pomalidomide]
[1]
  effect on the population of edited GFP-positive cells: depleted the population of edited GFP-positive cells
[2]
  effect on unedited cells: did not affect unedited cells
[3]; 92 hours after addition
  elimination of gene edited cells: completely eliminated
[3]; bi-allelic FIG. 7G clone, Incucyte
  time after addition of POM at which cell death rate surpassed proliferation rate: around 24 hours
[4]; degron construct with the shortest linker (3 aa, GGS)
  depletion of GFP-positive cells: depleted GFP-positive cells
[4]; degron constructs with 15 aa and 27 aa linkers (no depletion implied)
  depletion of GFP-positive cells: only if they were transfected with the degron-comprising targeting construct with the shortest linker or the superdegron-comprising targeting construct
[4]; superdegron construct (10 aa linker)
  depletion of GFP-positive cells: depleted GFP-positive cells
[5]
  amplicon depletion relative to untreated cells: associated with amplicon depletion
GAPDH expression
  GAPDH expression by qPCR, untreated vs POM-treated gene-edited cells: No large differences in GAPDH expression
[6]
  GAPDH protein by western blot: completely depleted
[7]; 0.5 μM POM for 5 days, degron and superdegron clones of Example 4
  killing of gene-edited iPSCs: complete killing of all gene-edited iPSCs
[7]; degron construct, monitored 5 days, range 0.03125 μM to 10 μM
  POM concentration sufficient to achieve complete killing: 0.5 µM
[7]; degron construct, monitored 5 days, range 0.03125 μM to 10 μM, data not shown
  POM concentration able to trigger apoptosis: 0.25 µM
[7]; superdegron construct, monitored 5 days
  lowest POM concentration evaluated, associated with apoptosis of all cells: 0.03125 µM
[8]
  growth of unedited parental cells: did not affect the growth of unedited parental cells
[9]; Clone A or Clone C, by 144 hours, range 0.01 μM to 100 μM
  POM concentration giving nearly complete cell death: 0.1 µM
[9]; DA neurons derived from clone B, 5-day treatment
  POM concentration giving complete killing (lowest concentration evaluated): 10 nM
[9]; clone B and clone C, by day 5, 0.13 μM-1 μM POM
  death of neurons at all POM concentrations evaluated: complete death of all neurons
[10]; 0.01 μM to 100 μM POM, 144 hours
  cell death at any POM concentration tested: No differences in cell death
[10]; various POM concentrations, 5 days
  neuronal death with vs without POM: No differences in neuronal death
[11]
  cell death of gene-edited MP clones: died in response to POM
[12]
  cell death of unedited parental MP line: no increase in cell death
